In ChEMBL document CHEMBL4507263, “Data for DCP probe BAY-474” (2021) one finds residual activity and inhibition data, which are given here for 2 compounds.

Experiment [1] deals with 1-phosphatidylinositol 3-phosphate 5-kinase (Homo sapiens) (UniProt Q9Y2I7). Particulars: Compound concentration 1000.0 nM.
For experiment [2], the target named is Serine/threonine-protein kinase N2 (Homo sapiens) (UniProt Q16513). Particulars: Compound concentration 1000.0 nM.
Experiment [3] concerns the target NT-3 growth factor receptor (Homo sapiens) (UniProt Q16288). To be noted: Compound concentration 1000.0 nM.
The subject of experiment [4] is Tyrosine-protein kinase ABL1 (Homo sapiens), P00519 [H396P]. To be noted: Compound concentration 1000.0 nM.
Experiment [5] addresses Cyclin-dependent kinase-like 2 (Homo sapiens) (UniProt Q92772). To be noted: Compound concentration 1000.0 nM.
Experiment [6] concerns the target Mitogen-activated protein kinase 4 (Homo sapiens) (UniProt P31152). To be noted: Compound concentration 1000.0 nM.
Experiment [7] relates to Tyrosine-protein kinase ABL1 (Homo sapiens), P00519 [M351T]. To be noted: Compound concentration 1000.0 nM.
Experiment [8] deals with Tyrosine-protein kinase Lyn (Homo sapiens) (UniProt P07948). To be noted: Compound concentration 1000.0 nM.
In experiment [9] the target is Serine/threonine-protein kinase RIO1 (Homo sapiens) (UniProt Q9BRS2). Particulars: Compound concentration 1000.0 nM.
Experiment [10] deals with Phosphatidylinositol 4-phosphate 5-kinase type-1 gamma (Homo sapiens) (UniProt O60331). Particulars: Compound concentration 1000.0 nM.
Experiment [11] has as its target STE20-like serine/threonine-protein kinase (Homo sapiens) (UniProt Q9H2G2). Particulars: Compound concentration 1000.0 nM.
The target of experiment [12] is Ribosomal protein S6 kinase alpha-3 (Homo sapiens, UniProt P51812). Particulars: Compound concentration 1000.0 nM.
The target in experiment [13] is Sodium-dependent noradrenaline transporter (Homo sapiens) (UniProt P23975). To be noted: Compound concentration 10.0 uM.
In experiment [14] the target is Tyrosine-protein kinase BTK (Homo sapiens) (UniProt Q06187). Particulars: Compound concentration 1000.0 nM.
The target of experiment [15] is Serine/threonine-protein kinase STK11 (Homo sapiens) (UniProt Q15831). Particulars: Compound concentration 1000.0 nM.
Experiment [16] addresses Insulin-like growth factor 1 receptor (Homo sapiens) (UniProt P08069). To be noted: Compound concentration 1000.0 nM.
The target in experiment [17] is ALK tyrosine kinase receptor (Homo sapiens) (UniProt Q9UM73). To be noted: Compound concentration 1000.0 nM.
ALK tyrosine kinase receptor (Homo sapiens), sequence (Q9UM73 19-1620 limits assumed): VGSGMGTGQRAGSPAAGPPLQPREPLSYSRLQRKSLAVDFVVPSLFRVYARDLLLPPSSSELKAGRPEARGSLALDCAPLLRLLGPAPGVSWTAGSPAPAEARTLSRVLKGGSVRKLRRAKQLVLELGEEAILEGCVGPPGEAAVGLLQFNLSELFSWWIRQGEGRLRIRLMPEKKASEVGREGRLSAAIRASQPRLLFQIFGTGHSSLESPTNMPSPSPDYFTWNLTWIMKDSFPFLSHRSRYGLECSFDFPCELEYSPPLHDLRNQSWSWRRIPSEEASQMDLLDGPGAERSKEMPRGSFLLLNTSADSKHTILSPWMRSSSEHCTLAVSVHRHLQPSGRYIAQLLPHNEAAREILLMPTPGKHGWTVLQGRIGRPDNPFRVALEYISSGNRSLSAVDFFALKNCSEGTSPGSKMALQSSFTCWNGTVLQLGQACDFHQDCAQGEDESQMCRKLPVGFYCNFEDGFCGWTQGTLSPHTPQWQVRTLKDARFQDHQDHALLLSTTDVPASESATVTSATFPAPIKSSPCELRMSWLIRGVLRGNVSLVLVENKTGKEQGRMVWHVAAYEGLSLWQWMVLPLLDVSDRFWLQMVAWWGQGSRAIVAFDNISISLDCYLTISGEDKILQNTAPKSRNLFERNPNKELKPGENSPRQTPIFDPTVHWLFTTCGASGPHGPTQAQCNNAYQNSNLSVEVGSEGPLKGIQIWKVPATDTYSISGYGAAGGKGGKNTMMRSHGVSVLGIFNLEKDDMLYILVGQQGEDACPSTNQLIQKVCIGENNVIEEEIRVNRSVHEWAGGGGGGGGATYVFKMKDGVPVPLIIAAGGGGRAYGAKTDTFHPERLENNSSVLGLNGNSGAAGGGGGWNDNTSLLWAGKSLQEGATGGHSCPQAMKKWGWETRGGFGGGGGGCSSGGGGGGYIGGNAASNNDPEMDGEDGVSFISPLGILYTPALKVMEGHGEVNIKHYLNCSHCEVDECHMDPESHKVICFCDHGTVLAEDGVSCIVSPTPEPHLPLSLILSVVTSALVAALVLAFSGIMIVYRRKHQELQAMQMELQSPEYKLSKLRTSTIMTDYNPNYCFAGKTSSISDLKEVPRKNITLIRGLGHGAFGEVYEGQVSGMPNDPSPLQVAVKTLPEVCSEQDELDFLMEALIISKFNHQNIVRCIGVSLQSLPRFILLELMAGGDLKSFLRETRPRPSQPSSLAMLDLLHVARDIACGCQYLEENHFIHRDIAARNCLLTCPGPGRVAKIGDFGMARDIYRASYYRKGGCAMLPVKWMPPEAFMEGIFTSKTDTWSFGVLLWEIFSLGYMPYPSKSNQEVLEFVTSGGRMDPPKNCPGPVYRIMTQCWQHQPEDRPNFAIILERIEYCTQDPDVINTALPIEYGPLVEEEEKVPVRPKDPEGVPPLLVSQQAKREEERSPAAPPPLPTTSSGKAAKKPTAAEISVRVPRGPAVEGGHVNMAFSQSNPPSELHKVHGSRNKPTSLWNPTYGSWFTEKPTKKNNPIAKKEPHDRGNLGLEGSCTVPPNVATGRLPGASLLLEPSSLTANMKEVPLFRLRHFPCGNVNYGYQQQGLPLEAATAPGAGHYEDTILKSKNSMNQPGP
Experiment [18] deals with Tyrosine-protein kinase CSK (Homo sapiens) (UniProt P41240). To be noted: Compound concentration 1000.0 nM.
Experiment [19] deals with Discoidin domain-containing receptor 2 (Homo sapiens) (UniProt Q16832). To be noted: Compound concentration 1000.0 nM.
In experiment [20] the target is Mitogen-activated protein kinase kinase kinase 13 (Homo sapiens) (UniProt O43283). Particulars: Compound concentration 1000.0 nM.
The target of experiment [21] is Non-receptor tyrosine-protein kinase TYK2 (Homo sapiens) (UniProt P29597). To be noted: Compound concentration 1000.0 nM.
Experiment [22] has as its target Casein kinase II subunit alpha (Homo sapiens) (UniProt P68400). Particulars: Compound concentration 1000.0 nM.
Experiment [23] concerns the target Serine/threonine-protein kinase 24 (Homo sapiens) (UniProt Q9Y6E0). To be noted: Compound concentration 1000.0 nM.
Experiment [24] has as its target Tyrosine-protein kinase Fyn (Homo sapiens) (UniProt P06241). To be noted: Compound concentration 1000.0 nM.
The target of experiment [25] is Serine/threonine-protein kinase BRSK1 (Homo sapiens) (UniProt Q8TDC3). Particulars: Compound concentration 1000.0 nM.
In experiment [26] the target is MAP kinase-activated protein kinase 5 (Homo sapiens) (UniProt Q8IW41). To be noted: Compound concentration 1000.0 nM.
Experiment [27] concerns the target Ribosomal protein S6 kinase alpha-4 (Homo sapiens) (UniProt O75676). To be noted: Compound concentration 1000.0 nM.
Experiment [28] addresses Protein kinase C eta type (Homo sapiens) (UniProt P24723). Particulars: Compound concentration 1000.0 nM.
Experiment [29] addresses Megakaryocyte-associated tyrosine-protein kinase (Homo sapiens) (UniProt P42679). Particulars: Compound concentration 1000.0 nM.
Experiment [30] concerns the target Calcium/calmodulin-dependent protein kinase type 1 (Homo sapiens) (UniProt Q14012). Particulars: Compound concentration 1000.0 nM.
Experiment [31] concerns the target Activated CDC42 kinase 1 (Homo sapiens) (UniProt Q07912). To be noted: Compound concentration 1000.0 nM.
Another experiment is filed under the species Rattus norvegicus. To be noted: Compound concentration 10.0 uM.
In experiment [32] the target is cAMP-dependent protein kinase catalytic subunit beta (Homo sapiens) (UniProt P22694). To be noted: Compound concentration 1000.0 nM.
In experiment [33] the test system is Epidermal growth factor receptor (Homo sapiens), P00533 [UNDEFINED MUTATION]. Particulars: Compound concentration 1000.0 nM.
The target in experiment [34] is Mitogen-activated protein kinase kinase kinase kinase 1 (Homo sapiens) (UniProt Q92918). Particulars: Compound concentration 1000.0 nM.
Mitogen-activated protein kinase kinase kinase kinase 1 (Homo sapiens), sequence (Q92918 whole entry, looked up): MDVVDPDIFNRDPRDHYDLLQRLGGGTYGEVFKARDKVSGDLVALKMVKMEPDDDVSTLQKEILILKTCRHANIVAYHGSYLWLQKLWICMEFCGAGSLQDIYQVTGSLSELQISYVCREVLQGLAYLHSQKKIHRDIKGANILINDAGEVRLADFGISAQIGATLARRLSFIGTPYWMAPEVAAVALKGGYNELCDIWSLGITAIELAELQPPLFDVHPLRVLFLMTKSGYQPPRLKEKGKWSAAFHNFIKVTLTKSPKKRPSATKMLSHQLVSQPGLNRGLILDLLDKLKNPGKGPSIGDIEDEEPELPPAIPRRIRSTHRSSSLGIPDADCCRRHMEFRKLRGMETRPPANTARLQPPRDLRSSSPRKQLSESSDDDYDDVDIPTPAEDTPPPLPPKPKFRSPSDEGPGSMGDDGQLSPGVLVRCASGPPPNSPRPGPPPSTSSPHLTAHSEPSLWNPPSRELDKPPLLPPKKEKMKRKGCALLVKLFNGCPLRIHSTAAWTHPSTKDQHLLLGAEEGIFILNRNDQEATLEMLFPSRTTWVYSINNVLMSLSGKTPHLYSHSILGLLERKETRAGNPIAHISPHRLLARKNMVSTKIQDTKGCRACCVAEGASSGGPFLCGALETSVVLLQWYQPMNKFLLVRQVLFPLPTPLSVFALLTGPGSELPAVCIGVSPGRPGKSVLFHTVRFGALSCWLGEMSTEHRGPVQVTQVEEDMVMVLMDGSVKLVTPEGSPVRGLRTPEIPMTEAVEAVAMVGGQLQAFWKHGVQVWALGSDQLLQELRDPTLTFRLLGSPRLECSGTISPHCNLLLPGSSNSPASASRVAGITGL
Experiment [35] has as its target Ribosomal protein S6 kinase alpha-1 (Homo sapiens) (UniProt Q15418). Briefly: Rsk1 (h) Millipore kinase activity assay. To be noted: Compound concentration 1.0 uM.
In experiment [36] the target is Serine/threonine-protein kinase pim-2 (Homo sapiens) (UniProt Q9P1W9). Nature of the experiment: Pim-2 (h) Millipore kinase activity assay. Particulars: Compound concentration 1.0 uM.
Experiment [37] concerns the target Receptor-interacting serine/threonine-protein kinase 2 (Homo sapiens) (UniProt O43353). Nature of the experiment: RIPK2 (h) Millipore kinase activity assay. To be noted: Compound concentration 1.0 uM.
The target in experiment [38] is Glutamate receptor ionotropic, kainate (Rattus norvegicus) (UniProt P22756+Q01812+P42260+P42264+Q63273). Nature of the experiment: Inhibition of Glutamate, Kainate at 10 µM in the Eurofins-Panlabs radioligand binding assay (Eurofins_assay_232700). Particulars: Compound concentration 10.0 uM.
The target of experiment [39] is Casein kinase I isoform delta (Homo sapiens) (UniProt P48730). Briefly: CK1delta (h) Millipore kinase activity assay. Particulars: Compound concentration 1.0 uM.
Experiment [40] addresses Serine/threonine-protein kinase MARK1 (Homo sapiens) (UniProt Q9P0L2). Briefly: MARK1 (h) Millipore kinase activity assay. Particulars: Compound concentration 1.0 uM.
Experiment [41] concerns the target Tyrosine-protein kinase Fgr (Homo sapiens) (UniProt P09769). Nature of the experiment: Fgr (h) Millipore kinase activity assay. To be noted: Compound concentration 1.0 uM.
The target in experiment [42] is Serine/threonine-protein kinase MRCK beta (Homo sapiens) (UniProt Q9Y5S2). Briefly: MRCKbeta (h) Millipore kinase activity assay. Particulars: Compound concentration 1.0 uM.
For experiment [43], the target named is Serine/threonine-protein kinase 17A (Homo sapiens) (UniProt Q9UEE5). Nature of the experiment: DRAK1 (h) Millipore kinase activity assay. To be noted: Compound concentration 1.0 uM.
Experiment [44] concerns the target B2 bradykinin receptor (Homo sapiens) (UniProt P30411). Particulars: Compound concentration 10.0 uM.

Activated CDC42 kinase 1 (Homo sapiens), sequence (Q07912 whole entry, looked up): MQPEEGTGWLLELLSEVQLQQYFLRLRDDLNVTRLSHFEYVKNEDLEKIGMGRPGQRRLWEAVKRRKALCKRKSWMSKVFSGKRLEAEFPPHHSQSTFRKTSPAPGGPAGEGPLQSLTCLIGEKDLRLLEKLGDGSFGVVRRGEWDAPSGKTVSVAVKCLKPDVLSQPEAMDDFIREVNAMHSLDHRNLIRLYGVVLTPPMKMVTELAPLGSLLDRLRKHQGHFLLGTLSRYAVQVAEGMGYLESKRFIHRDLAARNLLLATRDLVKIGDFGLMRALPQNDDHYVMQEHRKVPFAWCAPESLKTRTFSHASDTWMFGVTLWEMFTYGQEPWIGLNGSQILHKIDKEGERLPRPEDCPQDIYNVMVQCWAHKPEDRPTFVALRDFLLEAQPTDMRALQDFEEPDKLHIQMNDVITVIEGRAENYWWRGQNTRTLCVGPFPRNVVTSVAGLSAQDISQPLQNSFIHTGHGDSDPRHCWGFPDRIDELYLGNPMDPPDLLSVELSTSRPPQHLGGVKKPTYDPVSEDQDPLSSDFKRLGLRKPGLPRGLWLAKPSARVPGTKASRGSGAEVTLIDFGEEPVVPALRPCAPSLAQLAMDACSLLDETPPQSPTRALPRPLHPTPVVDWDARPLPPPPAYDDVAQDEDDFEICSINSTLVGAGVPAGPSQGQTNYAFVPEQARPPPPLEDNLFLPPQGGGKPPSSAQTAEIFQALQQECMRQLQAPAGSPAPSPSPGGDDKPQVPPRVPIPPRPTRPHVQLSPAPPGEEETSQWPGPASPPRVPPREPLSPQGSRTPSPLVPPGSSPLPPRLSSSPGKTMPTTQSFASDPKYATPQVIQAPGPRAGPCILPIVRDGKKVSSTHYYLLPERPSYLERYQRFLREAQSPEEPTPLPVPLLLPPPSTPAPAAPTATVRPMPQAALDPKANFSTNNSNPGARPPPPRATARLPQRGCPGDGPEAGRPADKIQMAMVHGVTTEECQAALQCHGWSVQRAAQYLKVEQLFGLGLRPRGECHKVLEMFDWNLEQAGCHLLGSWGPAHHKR
Serine/threonine-protein kinase N2 (Homo sapiens), sequence (Q16513 whole entry, looked up): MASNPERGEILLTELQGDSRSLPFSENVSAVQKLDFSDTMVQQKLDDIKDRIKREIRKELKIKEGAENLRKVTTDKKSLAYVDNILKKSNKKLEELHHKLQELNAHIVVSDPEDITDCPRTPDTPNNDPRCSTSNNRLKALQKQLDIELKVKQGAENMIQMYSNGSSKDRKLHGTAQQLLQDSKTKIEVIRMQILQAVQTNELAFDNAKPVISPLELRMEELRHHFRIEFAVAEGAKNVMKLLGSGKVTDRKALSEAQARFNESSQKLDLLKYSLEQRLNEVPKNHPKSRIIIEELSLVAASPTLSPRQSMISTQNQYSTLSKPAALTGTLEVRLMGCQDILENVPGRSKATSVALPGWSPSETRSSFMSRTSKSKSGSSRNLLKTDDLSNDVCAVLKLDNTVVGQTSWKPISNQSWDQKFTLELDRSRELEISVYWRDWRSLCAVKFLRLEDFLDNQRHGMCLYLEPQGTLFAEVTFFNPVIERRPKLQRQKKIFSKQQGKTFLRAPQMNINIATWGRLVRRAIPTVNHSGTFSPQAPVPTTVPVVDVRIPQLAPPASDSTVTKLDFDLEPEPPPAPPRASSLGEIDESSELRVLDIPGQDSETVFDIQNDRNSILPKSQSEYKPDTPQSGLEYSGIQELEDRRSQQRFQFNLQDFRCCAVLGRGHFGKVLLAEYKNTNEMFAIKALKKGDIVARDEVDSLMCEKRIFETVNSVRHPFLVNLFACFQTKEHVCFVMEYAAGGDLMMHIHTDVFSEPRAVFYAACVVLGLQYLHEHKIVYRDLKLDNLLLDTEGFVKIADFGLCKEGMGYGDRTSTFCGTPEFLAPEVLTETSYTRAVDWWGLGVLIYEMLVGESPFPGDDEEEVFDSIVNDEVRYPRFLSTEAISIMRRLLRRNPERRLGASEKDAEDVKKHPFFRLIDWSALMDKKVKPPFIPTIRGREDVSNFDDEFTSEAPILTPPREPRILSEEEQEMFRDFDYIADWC
Tyrosine-protein kinase Fgr (Homo sapiens), sequence (P09769 2-529 limits assumed): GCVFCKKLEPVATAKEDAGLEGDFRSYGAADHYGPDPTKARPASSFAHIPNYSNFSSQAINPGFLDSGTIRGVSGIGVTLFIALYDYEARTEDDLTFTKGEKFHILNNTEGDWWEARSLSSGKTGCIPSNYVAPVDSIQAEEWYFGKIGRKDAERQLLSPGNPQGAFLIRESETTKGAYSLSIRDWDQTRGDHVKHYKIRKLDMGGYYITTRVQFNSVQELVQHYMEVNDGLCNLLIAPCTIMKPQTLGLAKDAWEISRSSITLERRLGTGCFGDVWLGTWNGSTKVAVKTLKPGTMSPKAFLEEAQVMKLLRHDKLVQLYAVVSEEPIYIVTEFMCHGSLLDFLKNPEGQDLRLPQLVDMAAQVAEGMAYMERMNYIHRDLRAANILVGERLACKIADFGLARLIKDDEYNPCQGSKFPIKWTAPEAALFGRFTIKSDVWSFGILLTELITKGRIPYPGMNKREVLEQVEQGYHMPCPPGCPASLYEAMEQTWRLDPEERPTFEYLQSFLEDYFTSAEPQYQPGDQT

In the case of `CC1=C(C#N)[C@@H](c2ccc3[nH]nc(C)c3c2)C(C#N)=C(c2ccc(Cl)cc2)N1` [BAY-827], the residual activity in experiment [1] is 100%; in experiment [2], 74.6%; in [3], 100%; in experiment [4], 100%; in experiment [5] it was 97.9%; in [6], 89.6%. Besides, the residual activity was 94.6% in [7]; 96.8% in experiment [8]; 100% in experiment [9]; 99.5% in experiment [10]; 100% in experiment [11]; 86.2% in experiment [12]. The residual activity in [14] is 99.9%; in [15] it was 100%; in [16] it was 100%; in experiment [17], 84.7%; in [18], 100%; in [19], 99.4%. Besides, the residual activity in [20] is 100%; in [21], 73.1%; in [22], 100%; in experiment [23], 100%; in experiment [24], 69%; in experiment [25], 100%. Moreover, the residual activity in [26] is 100%; in [27], 81.4%; in [28], 96.1%; in experiment [29], 100%; in experiment [30], 100%; in experiment [31], 100%. Also, the residual activity in [32] was 81.5%; in experiment [33], 80.4%; in experiment [34], 93.1%. Also, the inhibition is 8.56% in experiment [13] and 69.5% in the experiment filed under Rattus norvegicus.

Turning to `CC1=C(C#N)C(c2ccc3[nH]nc(C)c3c2)C(C#N)=C(C)N1` [BAY-474], the inhibition in experiment [35] was 46%; in [36], -3%; in [37], 5%; in [38], -4%; in experiment [39], 3%; in experiment [40], 11%. For the same compound, the inhibition is 14% in experiment [41], -7% in [42], -6% in experiment [43] and -10% in experiment [44].

In general, inhibition refers to the drop in the measured response relative to a control, in per cent.
